Measurements: ChEMBL document CHEMBL5143541, “Novel structural-related analogs of PFI-3 (SRAPs) that target the BRG1 catalytic subunit of the SWI/SNF complex increase the activity of temozolomide in glioblastoma cells” (Bioorg Med Chem, 2022)
Activity calls are given as the source filed them. The rule behind the calls is not given here.

How the values were obtained:
MT330 [1] = test: Induction of cell death in human MT330 cells assessed as reduction in cell viability at 2 uM combination with TMZ after 3 days by ELISA; format: functional, cell-based; settings: time 3.0 day
MT330 [2] = test: Induction of cell death in human MT330 cells assessed as reduction in cell viability at 2 uM after 3 days by ELISA; format: functional, cell-based; settings: time 3.0 day
MT330 [3] = test: Anti-tumor activity against human MT330 cells xenografted in NSG mouse assessed as reduction in tumor growth at 10 mg/kg, ip for alterate days combination with TMZ and measured after 8 weeks; format: functional, organism-based
LN-229 [4] = test: Antiproliferative activity against human LN-229 cells assessed as reduction in cell viability at 2 uM up to 7 days by incucyte live cell assay; format: functional, cell-based; settings: time <= 7.0 day
MT330 [5] = test: Anti-tumor activity against human MT330 cells xenografted in NSG mouse assessed as reduction in tumor growth at 10 mg/kg, ip for alterate days combination with TMZ and measured after 2 weeks; format: functional, organism-based
LN-229 [6] = test: Antiproliferative activity against human LN-229 cells assessed as reduction in cell viability at 2 uM combination with TMZ up to 7 days by incucyte live cell assay; format: functional, cell-based; settings: time <= 7.0 day
[7] = target: SWI/SNF-related matrix-associated actin-dependent regulator of chromatin subfamily A member 4 (Homo sapiens) (UniProt P51532); test: Binding affinity to epitope-tagged BRG1 bromodomain (unknown origin) expressed in MT330 cells assessed as thermostability at < 54.2 degC at 30 uM for 2 hrs by […]; format: cell-based
SWI/SNF-related matrix-associated actin-dependent regulator of chromatin subfamily A member 4 (Homo sapiens), sequence (P51532 whole entry): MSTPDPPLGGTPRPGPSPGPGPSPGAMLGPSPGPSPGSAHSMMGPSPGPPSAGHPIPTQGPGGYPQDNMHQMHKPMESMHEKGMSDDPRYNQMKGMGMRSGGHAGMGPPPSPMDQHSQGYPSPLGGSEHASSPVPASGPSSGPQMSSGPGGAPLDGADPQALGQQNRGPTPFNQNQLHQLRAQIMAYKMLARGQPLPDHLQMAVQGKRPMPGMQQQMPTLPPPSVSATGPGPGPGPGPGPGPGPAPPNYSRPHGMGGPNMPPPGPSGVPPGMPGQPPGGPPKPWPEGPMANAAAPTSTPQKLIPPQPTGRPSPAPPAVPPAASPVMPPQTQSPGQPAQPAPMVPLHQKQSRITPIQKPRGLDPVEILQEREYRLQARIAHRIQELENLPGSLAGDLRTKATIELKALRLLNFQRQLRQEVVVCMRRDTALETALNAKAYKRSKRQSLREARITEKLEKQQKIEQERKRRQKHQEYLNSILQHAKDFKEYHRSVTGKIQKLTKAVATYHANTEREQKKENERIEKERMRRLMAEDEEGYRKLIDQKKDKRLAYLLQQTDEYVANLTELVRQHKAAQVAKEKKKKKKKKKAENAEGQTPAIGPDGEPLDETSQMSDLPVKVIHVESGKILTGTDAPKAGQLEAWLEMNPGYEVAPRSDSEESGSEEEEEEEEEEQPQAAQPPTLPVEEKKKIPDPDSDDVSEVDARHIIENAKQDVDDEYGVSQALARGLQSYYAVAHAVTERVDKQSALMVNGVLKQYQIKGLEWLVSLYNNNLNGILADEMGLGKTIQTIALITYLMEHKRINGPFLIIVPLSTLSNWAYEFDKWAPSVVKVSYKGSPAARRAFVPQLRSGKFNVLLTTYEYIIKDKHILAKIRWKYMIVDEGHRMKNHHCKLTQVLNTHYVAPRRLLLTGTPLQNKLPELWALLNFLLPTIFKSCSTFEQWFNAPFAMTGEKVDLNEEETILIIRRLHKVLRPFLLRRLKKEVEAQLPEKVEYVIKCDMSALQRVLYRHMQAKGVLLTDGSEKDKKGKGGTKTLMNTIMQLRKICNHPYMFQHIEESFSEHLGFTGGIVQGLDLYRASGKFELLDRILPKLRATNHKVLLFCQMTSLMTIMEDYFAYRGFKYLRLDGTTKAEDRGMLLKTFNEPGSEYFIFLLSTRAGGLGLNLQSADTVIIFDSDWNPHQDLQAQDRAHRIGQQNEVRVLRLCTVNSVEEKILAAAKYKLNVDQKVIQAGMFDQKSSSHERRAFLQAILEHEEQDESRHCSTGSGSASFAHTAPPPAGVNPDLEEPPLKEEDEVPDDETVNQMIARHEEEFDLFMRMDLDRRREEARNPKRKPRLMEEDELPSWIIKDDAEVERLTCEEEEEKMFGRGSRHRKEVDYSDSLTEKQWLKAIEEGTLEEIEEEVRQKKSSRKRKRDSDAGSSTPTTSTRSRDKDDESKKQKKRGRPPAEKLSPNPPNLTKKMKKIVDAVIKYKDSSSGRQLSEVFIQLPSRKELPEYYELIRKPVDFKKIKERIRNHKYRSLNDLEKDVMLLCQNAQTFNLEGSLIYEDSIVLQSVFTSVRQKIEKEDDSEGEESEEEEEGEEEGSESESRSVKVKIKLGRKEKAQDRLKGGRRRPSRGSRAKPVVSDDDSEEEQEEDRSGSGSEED

MT330 [8] = test: Induction of cell death in human MT330 cells assessed as reduction in cell viability at 50 uM after 3 days by ELISA; format: functional, cell-based; settings: time 3.0 day
LN-229 [9] = test: Antiproliferative activity against human LN-229 cells assessed as reduction in cell viability at 80 uM up to 7 days by incucyte live cell assay; format: functional, cell-based; settings: time <= 7.0 day

| Structure (SMILES) | Activity (MT330 [1]) | Activity (MT330 [2]) | further results |
| --- | --- | --- | --- |
| O=C(/C=C/N1C[C@H]2C[C@@H]1CN2c1ccc(F)cc1)c1ccccc1O | Active | Active |  |
| O=C(/C=C/N1C[C@H]2C[C@@H]1CN2c1ccc(F)cc1)c1cc(F)ccc1O | Active | Active |  |
| O=C(/C=C/N1C[C@H]2C[C@@H]1CN2c1ccccn1)c1cc(Br)ccc1O | Active | Active |  |
| O=C(/C=C/N1C[C@H]2C[C@@H]1CN2c1ccc(F)cc1)c1ccccc1 | Active | Active | TGI (MT330 [3]): Active; Activity (LN-229 [4]): Active; TGI (MT330 [5]): Active; Activity (LN-229 [6]): Active |
| COc1ccc(N2C[C@H]3C[C@@H]2CN3/C=C/C(=O)c2ccccc2Cl)cc1 | Active | Active |  |
| O=C(/C=C/N1C[C@H]2C[C@@H]1CN2c1ccccn1)c1ccccc1O | Active | Active | TGI (MT330 [3]): Active; Activity [7]: Active; Activity (LN-229 [4]): Active; TGI (MT330 [5]): Active; Activity (LN-229 [6]): Active |
| O=C(/C=C/N1C[C@H]2C[C@@H]1CN2c1ccc(F)cc1)c1ccccc1Cl | Active | Active |  |
| O=C(/C=C/N1C[C@H]2C[C@@H]1CN2c1ccccn1)c1cc(Br)cc(Br)c1O | Active | Active | TGI (MT330 [3]): Active; Activity (LN-229 [4]): Active; TGI (MT330 [5]): Active; Activity (LN-229 [6]): Active |
| COc1ccc(N2C[C@H]3C[C@@H]2CN3/C=C/C(=O)c2cc(F)ccc2O)cc1 | Active | Active |  |
| O=C(/C=C/N1C[C@H]2C[C@@H]1CN2c1ccccn1)c1ccc(Cl)cc1O | Active | Active |  |
| Cn1nnc2c(C(N)=O)ncn2c1=O |  |  | Activity (MT330 [8]): Active; Activity (LN-229 [9]): Active |
| O=C(/C=C/N1C[C@H]2C[C@@H]1CN2c1ccccn1)c1cc(F)ccc1O | Active | Active |  |
| COc1ccc(N2C[C@H]3C[C@@H]2CN3/C=C/C(=O)c2ccccc2O)cc1 | Active | Active |  |
| O=C(/C=C/N1C[C@H]2C[C@@H]1CN2c1ccccn1)c1ccccc1Cl | Active | Active |  |
